Columns and labels:
Assay in all cases: KinomeScan kinase panel
Assay type in all cases: binding
[1] = biological target: T1, ABL1(T315I)-phosphorylated (Homo sapiens, UniProt P00519, T315I)
T1 construct: purchased DiscoveRx Corporation (KinomeScan)
In short: (§1)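 Single-point screen: 1000 nM compound, KinomeScan panel of 442 kinases.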

ACVR2B = biological target: T2, ACVR2B (Homo sapiens, UniProt Q13705)
T2 construct: purchased DiscoveRx Corporation (KinomeScan)
In short: as §1

AKT1 = biological target: T3, AKT1 (Homo sapiens, UniProt P31749)
T3 construct: purchased DiscoveRx Corporation (KinomeScan)
In short: as §1

CDC2L1 = biological target: T4, CDC2L1 (Homo sapiens, UniProt P21127)
T4 construct: purchased DiscoveRx Corporation (KinomeScan)
In short: as §1

CDK4-cyclinD1 = biological target: T5, CDK4-cyclinD1 (Homo sapiens, UniProt P11802)
T5 construct: purchased DiscoveRx Corporation (KinomeScan)
In short: as §1

CDK8 = biological target: T6, CDK8 (Homo sapiens, UniProt P49336)
T6 construct: purchased DiscoveRx Corporation (KinomeScan)
In short: as §1

DCAMKL2 = biological target: T7, DCAMKL2 (Homo sapiens, UniProt Q8N568)
T7 construct: purchased DiscoveRx Corporation (KinomeScan)
In short: as §1

DYRK2 = biological target: T8, DYRK2 (Homo sapiens, UniProt Q92630)
T8 construct: purchased DiscoveRx Corporation (KinomeScan)
In short: as §1

EGFR(G719C) = biological target: T9, EGFR(G719C) (Homo sapiens, UniProt P00533, G719C)
T9 construct: purchased DiscoveRx Corporation (KinomeScan)
In short: as §1

EGFR(G719S) = biological target: T10, EGFR(G719S) (Homo sapiens, UniProt P00533, G719S)
T10 construct: purchased DiscoveRx Corporation (KinomeScan)
In short: as §1

EGFR(L747-E749del,A750P) = biological target: T11, EGFR(L747-E749del,A750P) (Homo sapiens, UniProt P00533, A750P/DEL747-749)
T11 construct: purchased DiscoveRx Corporation (KinomeScan)
In short: as §1

ERK8 = biological target: T12, ERK8 (Homo sapiens, UniProt Q8TD08)
T12 construct: purchased DiscoveRx Corporation (KinomeScan)
In short: as §1

FGFR1 = biological target: T13, FGFR1 (Homo sapiens, UniProt P11362)
T13 construct: purchased DiscoveRx Corporation (KinomeScan)
In short: as §1

IRAK1 = biological target: T14, IRAK1 (Homo sapiens, UniProt P51617)
T14 construct: purchased DiscoveRx Corporation (KinomeScan)
In short: as §1

KIT(D816V) = biological target: T15, KIT(D816V) (Homo sapiens, UniProt P10721, D816V)
T15 construct: purchased DiscoveRx Corporation (KinomeScan)
In short: as §1

KIT(V559D) = biological target: T16, KIT(V559D) (Homo sapiens, UniProt P10721, V559D)
T16 construct: purchased DiscoveRx Corporation (KinomeScan)
In short: as §1

LATS1 = biological target: T17, LATS1 (Homo sapiens, UniProt O95835)
T17 construct: purchased DiscoveRx Corporation (KinomeScan)
In short: as §1

MEK2 = biological target: T18, MEK2 (Homo sapiens, UniProt P36507)
T18 construct: purchased DiscoveRx Corporation (KinomeScan)
In short: as §1

MEK3 = biological target: T19, MEK3 (Homo sapiens, UniProt P46734)
T19 construct: purchased DiscoveRx Corporation (KinomeScan)
In short: as §1

MEK4 = biological target: T20, MEK4 (Homo sapiens, UniProt P45985)
T20 construct: purchased DiscoveRx Corporation (KinomeScan)
In short: as §1

NEK2 = biological target: T21, NEK2 (Homo sapiens, UniProt P51955)
T21 construct: purchased DiscoveRx Corporation (KinomeScan)
In short: as §1

NEK5 = biological target: T22, NEK5 (Homo sapiens, UniProt Q6P3R8)
T22 construct: purchased DiscoveRx Corporation (KinomeScan panel)
In short: as §1

PIK3C2B = biological target: T23, PIK3C2B (Homo sapiens, UniProt O00750)
T23 construct: purchased DiscoveRx Corporation (KinomeScan)
In short: as §1

PIK3CD = biological target: T24, PIK3CD (Homo sapiens, UniProt O00329)
T24 construct: purchased DiscoveRx Corporation (KinomeScan)
In short: as §1

PIP5K2C = biological target: T25, PIP5K2C (Homo sapiens, UniProt Q8TBX8)
T25 construct: purchased DiscoveRx Corporation (KinomeScan)
In short: as §1

PLK4 = biological target: T26, PLK4 (Homo sapiens, UniProt O00444)
T26 construct: purchased DiscoveRx Corporation (KinomeScan)
In short: as §1

RIOK1 = biological target: T27, RIOK1 (Homo sapiens, UniProt Q9BRS2)
T27 construct: purchased DiscoveRx Corporation
In short: as §1

RIOK3 = biological target: T28, RIOK3 (Homo sapiens, UniProt O14730)
T28 construct: purchased DiscoveRx Corporation
In short: as §1

[2] = biological target: T29, RSK4(Kin.Dom.1-N-terminal) (Homo sapiens, UniProt Q9UK32)
T29 construct: Kin.Dom.1; purchased DiscoveRx Corporation (KinomeScan)
In short: as §1

S6K1 = biological target: T30, S6K1 (Homo sapiens, UniProt P23443)
T30 construct: purchased DiscoveRx Corporation (KinomeScan)
In short: as §1

SNARK = biological target: T31, SNARK (Homo sapiens, UniProt Q9H093)
T31 construct: purchased DiscoveRx Corporation (KinomeScan)
In short: as §1

SRMS = biological target: T32, SRMS (Homo sapiens, UniProt Q9H3Y6)
T32 construct: purchased DiscoveRx Corporation (KinomeScan)
In short: as §1

STK36 = biological target: T33, STK36 (Homo sapiens, UniProt Q9NRP7)
T33 construct: purchased DiscoveRx Corporation (KinomeScan)
In short: as §1

TAOK2 = biological target: T34, TAOK2 (Homo sapiens, UniProt Q9UL54)
T34 construct: purchased DiscoveRx Corporation (KinomeScan)
In short: as §1

ZAK = biological target: T35, ZAK (Homo sapiens, UniProt Q9NYL2)
T35 construct: purchased DiscoveRx Corporation (KinomeScan service)
In short: as §1

T4 sequence (P21127 whole entry): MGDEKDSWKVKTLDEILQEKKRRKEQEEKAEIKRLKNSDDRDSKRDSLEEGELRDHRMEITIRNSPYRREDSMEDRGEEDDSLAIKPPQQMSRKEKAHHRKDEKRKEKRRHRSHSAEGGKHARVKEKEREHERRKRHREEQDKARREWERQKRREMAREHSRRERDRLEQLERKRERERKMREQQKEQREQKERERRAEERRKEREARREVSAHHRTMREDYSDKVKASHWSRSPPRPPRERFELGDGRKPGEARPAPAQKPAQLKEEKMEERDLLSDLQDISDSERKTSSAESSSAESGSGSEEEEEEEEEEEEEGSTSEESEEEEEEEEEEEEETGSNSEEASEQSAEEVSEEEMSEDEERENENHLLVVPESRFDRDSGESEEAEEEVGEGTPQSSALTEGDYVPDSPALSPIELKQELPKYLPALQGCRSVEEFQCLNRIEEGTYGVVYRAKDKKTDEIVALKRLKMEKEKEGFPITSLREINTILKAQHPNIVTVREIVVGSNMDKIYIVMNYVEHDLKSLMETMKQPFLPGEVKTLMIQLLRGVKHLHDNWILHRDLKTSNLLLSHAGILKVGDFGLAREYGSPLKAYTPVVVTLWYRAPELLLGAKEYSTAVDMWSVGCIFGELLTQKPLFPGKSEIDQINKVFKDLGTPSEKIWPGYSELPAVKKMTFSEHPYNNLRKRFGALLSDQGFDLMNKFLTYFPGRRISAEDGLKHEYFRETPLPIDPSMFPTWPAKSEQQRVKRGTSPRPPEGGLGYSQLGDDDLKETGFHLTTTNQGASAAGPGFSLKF
T15 sequence (P10721 26-976 D816V): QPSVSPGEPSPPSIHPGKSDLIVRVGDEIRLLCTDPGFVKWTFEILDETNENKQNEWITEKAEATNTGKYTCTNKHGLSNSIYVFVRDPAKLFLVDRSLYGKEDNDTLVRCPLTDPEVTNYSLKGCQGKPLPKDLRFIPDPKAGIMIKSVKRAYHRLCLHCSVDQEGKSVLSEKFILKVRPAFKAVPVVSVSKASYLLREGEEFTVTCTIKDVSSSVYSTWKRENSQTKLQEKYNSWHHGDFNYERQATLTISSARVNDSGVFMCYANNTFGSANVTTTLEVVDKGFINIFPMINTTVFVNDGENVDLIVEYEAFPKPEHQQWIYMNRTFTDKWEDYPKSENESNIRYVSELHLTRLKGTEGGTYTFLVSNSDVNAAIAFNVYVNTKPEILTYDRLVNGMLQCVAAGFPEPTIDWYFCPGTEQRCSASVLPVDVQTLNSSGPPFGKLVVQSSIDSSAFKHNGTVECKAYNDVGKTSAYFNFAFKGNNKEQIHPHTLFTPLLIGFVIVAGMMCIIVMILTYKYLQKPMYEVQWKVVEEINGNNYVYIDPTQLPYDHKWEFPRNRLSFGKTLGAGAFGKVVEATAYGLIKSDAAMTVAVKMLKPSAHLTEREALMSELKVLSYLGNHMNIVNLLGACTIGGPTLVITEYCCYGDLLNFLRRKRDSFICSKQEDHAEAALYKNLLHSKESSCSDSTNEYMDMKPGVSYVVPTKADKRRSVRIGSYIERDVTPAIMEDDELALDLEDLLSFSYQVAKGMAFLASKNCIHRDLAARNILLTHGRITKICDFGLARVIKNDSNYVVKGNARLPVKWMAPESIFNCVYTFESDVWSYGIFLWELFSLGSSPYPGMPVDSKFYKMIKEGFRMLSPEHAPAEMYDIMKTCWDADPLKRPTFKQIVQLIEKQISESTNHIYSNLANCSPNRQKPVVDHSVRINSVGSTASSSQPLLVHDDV
T26 sequence (O00444 whole entry): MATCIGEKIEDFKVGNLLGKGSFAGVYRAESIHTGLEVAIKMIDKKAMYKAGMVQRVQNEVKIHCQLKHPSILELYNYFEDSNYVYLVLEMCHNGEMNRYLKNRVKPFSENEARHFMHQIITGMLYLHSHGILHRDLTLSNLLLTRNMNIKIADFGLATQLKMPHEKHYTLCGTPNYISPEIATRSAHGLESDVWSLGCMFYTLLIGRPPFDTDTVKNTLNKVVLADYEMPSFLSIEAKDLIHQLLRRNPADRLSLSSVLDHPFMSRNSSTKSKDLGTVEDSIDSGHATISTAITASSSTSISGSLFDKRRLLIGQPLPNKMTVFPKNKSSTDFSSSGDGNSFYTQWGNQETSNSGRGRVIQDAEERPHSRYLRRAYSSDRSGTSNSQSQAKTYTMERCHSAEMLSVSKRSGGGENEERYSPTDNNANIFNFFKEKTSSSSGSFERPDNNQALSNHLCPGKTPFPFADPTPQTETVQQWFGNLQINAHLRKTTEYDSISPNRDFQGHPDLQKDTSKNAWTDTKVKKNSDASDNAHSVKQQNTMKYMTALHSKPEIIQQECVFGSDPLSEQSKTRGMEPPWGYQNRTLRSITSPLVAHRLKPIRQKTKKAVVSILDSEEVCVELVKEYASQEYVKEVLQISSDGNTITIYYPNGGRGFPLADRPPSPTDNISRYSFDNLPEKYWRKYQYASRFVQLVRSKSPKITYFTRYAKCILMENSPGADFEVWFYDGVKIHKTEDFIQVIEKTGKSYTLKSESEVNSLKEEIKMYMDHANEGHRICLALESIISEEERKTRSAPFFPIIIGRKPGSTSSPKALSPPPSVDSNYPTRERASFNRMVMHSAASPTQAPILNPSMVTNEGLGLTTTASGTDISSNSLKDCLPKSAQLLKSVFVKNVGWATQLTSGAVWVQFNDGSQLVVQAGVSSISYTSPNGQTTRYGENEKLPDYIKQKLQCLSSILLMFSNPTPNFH
T3 sequence (P31749 whole entry): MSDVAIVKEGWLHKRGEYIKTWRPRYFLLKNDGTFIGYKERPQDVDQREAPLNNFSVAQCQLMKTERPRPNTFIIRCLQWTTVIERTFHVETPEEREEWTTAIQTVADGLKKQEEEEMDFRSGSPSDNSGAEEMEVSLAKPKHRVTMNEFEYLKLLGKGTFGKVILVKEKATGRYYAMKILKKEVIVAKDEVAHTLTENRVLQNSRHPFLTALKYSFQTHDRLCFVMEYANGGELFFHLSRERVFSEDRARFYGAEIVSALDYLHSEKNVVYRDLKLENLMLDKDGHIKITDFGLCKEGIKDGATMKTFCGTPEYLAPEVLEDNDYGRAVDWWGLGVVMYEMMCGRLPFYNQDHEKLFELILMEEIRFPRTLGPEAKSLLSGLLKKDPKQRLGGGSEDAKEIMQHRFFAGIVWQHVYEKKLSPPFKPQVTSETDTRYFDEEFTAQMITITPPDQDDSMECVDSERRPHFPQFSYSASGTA
T35 sequence (Q9NYL2 whole entry): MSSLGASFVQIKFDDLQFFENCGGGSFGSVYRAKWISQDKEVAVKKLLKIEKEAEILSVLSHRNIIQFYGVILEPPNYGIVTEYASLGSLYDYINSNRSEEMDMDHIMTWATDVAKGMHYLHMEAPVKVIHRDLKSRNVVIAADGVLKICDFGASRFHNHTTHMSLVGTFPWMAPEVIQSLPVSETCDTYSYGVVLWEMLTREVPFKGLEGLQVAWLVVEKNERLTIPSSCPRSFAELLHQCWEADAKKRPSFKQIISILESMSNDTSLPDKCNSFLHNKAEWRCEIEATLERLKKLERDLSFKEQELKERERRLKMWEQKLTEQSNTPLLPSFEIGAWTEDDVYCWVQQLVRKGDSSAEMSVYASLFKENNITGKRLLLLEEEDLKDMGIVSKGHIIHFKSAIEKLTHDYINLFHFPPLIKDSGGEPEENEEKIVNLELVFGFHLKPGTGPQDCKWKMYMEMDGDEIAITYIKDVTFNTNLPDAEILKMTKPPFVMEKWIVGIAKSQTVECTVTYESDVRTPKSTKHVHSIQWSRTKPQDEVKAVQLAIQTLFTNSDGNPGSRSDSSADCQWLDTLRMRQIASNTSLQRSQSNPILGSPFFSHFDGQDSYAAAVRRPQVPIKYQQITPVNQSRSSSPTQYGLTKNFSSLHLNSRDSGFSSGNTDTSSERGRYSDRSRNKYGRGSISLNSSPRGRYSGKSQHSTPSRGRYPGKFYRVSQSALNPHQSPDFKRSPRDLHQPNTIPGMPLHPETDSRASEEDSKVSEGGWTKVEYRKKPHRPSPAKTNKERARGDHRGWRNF
T14 sequence (P51617 whole entry): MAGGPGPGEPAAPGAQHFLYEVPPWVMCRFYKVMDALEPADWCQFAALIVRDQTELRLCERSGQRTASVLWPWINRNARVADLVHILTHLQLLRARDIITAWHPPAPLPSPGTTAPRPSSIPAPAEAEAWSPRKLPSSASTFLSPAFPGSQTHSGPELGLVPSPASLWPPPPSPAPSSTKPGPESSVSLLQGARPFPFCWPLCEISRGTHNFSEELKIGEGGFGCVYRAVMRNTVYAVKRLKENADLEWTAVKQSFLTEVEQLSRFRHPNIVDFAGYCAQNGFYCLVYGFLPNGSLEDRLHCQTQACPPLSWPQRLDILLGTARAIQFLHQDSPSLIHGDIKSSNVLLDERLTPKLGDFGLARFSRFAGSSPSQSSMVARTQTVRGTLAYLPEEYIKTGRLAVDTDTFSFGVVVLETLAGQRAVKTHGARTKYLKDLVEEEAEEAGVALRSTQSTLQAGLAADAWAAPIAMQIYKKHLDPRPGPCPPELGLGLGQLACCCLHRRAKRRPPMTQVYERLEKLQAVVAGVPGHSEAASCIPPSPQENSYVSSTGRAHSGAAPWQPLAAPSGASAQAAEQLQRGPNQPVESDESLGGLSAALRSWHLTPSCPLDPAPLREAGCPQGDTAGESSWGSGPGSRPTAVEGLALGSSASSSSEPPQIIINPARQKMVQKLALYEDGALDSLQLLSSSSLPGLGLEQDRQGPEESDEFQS
T16 sequence (P10721 26-976 V559D): as the sequence (P10721 26-976 D816V) above, with V534D, V791D counted along it
T29 sequence (Q9UK32 73-330 limits assumed): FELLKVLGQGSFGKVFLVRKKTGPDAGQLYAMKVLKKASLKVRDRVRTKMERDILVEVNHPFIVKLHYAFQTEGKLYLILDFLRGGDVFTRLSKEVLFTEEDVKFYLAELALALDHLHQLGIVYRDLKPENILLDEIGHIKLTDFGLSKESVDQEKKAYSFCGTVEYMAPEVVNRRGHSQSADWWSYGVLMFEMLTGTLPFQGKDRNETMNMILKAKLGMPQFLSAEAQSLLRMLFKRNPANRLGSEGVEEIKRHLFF

CCOP(=O)(CN1CCC(COc2cc3nccc(Oc4ccc(NC(=O)C5(C(=O)Nc6ccc(F)cc6)CC5)cc4F)c3cc2OC)CC1)OCC [Example 10, N1-[4-[[7-[[1-(diethoxyphosphorylmethyl)-4-piperidinyl]methoxyl]-6-methoxyl-4-quinolyl]oxyl]-3-fluorophenyl]-N1′-(4-fluorophenyl)cyclopropane-1,1-dicarboxamide]
% Ctrl@1000 nM [1]: 75 % Ctrl
% Ctrl@1000 nM (ACVR2B): 100 % Ctrl
% Ctrl@1000 nM (AKT1): 100 % Ctrl
% Ctrl@1000 nM (CDC2L1): 100 % Ctrl
% Ctrl@1000 nM (CDK4-cyclinD1): 100 % Ctrl
% Ctrl@1000 nM (CDK8): 76 % Ctrl
% Ctrl@1000 nM (DCAMKL2): 100 % Ctrl
% Ctrl@1000 nM (DYRK2): 100 % Ctrl
% Ctrl@1000 nM (EGFR(G719C)): 75 % Ctrl
% Ctrl@1000 nM (EGFR(G719S)): 81 % Ctrl
% Ctrl@1000 nM (EGFR(L747-E749del,A750P)): 67 % Ctrl
% Ctrl@1000 nM (ERK8): 95 % Ctrl
% Ctrl@1000 nM (FGFR1): 100 % Ctrl
% Ctrl@1000 nM (IRAK1): 100 % Ctrl
% Ctrl@1000 nM (KIT(D816V)): 18 % Ctrl
% Ctrl@1000 nM (KIT(V559D)): 0.15 % Ctrl
% Ctrl@1000 nM (LATS1): 100 % Ctrl
% Ctrl@1000 nM (MEK2): 33 % Ctrl
% Ctrl@1000 nM (MEK3): 100 % Ctrl
% Ctrl@1000 nM (MEK4): 100 % Ctrl
% Ctrl@1000 nM (NEK2): 100 % Ctrl
% Ctrl@1000 nM (NEK5): 97 % Ctrl
% Ctrl@1000 nM (PIK3C2B): 100 % Ctrl
% Ctrl@1000 nM (PIK3CD): 100 % Ctrl
% Ctrl@1000 nM (PIP5K2C): 38 % Ctrl
% Ctrl@1000 nM (PLK4): 7.4 % Ctrl
% Ctrl@1000 nM (RIOK1): 100 % Ctrl
% Ctrl@1000 nM (RIOK3): 100 % Ctrl
% Ctrl@1000 nM [2]: 77 % Ctrl
% Ctrl@1000 nM (S6K1): 89 % Ctrl
% Ctrl@1000 nM (SNARK): 100 % Ctrl
% Ctrl@1000 nM (SRMS): 8.9 % Ctrl
% Ctrl@1000 nM (STK36): 100 % Ctrl
% Ctrl@1000 nM (TAOK2): 70 % Ctrl
% Ctrl@1000 nM (ZAK): 36 % Ctrl

Reference: US8933230B2, “Phosphorus-containing group-substituted quinoline, its preparation process, medical composition containing the compounds and application” (priority 2011, dated 2015)
